From ChEMBL document CHEMBL3352592, “The antileishmanial activity of isoforms 6- and 8-selective histone deacetylase inhibitors” (Bioorg Med Chem Lett, 2014)
≈ marks a conversion by molar mass, not a printed value.

Columns and labels:
Leishmania donovani [1] = assay: Antileishmanial activity against promastigote stage of Leishmania donovani after 72 hrs by Alamar blue assay; assay type: functional, organism-based
Leishmania donovani [2] = assay: Antileishmanial activity against axenic amastigote stage of Leishmania donovani after 72 hrs by Alamar blue assay; assay type: functional, organism-based
Leishmania donovani [3] = assay: Selectivity ratio of IC50 for axenic amastigote stage of Leishmania donovani to IC50 for amastigote stage of Leishmania donovani infected in human THP1 cells; assay type: functional, THP-1
Leishmania donovani [4] = assay: Antileishmanial activity against amastigote stage of Leishmania donovani infected in human THP1 cells after 48 hrs by Alamar blue assay; assay type: functional, organism-based; conditions: THP-1, 48 h
THP-1 = assay: Cytotoxicity against human THP1 cells after 48 hrs by Alamar blue assay; assay type: ADME, cell-based; conditions: THP-1, 48 h
DU-145 = assay: Cytotoxicity against human DU145 cells; assay type: functional, cell-based
LNCaP = assay: Cytotoxicity against human LNCAP cells; assay type: functional, cell-based
Jurkat = assay: Cytotoxicity against human Jurkat cells; assay type: functional, cell-based
[5] = Cytotoxicity against human Jurkat gamma1 cells; assay type: functional, cell-based

Row | SMILES | IC50 (Leishmania donovani [1]) [mg/L] | IC50 (Leishmania donovani [2]) [mg/L] | Ratio IC50 (Leishmania donovani [3]) | IC50 (Leishmania donovani [4]) [mg/L] | IC50 (THP-1) [mg/L] | IC50 (DU-145) [µM] | IC50 (LNCaP) [µM] | IC50 (Jurkat) [µM] | IC50 [5]
1 | CN(C)c1ccc(-c2ccc(Cn3cccc(O)c3=S)cc2)cc1 | 0.2 (≈ 0.594 µM) | 7.4 (≈ 22 µM) | 5 | 0.3 (≈ 0.892 µM) | > 10 | – | – | – | –
2 | Oc1cccn(Cc2ccccc2)c1=S | 0.1 (≈ 0.46 µM) | 6.5 (≈ 29.9 µM) | – | 5.8 (≈ 26.7 µM) | > 10 | – | – | – | –
3 | N#Cc1cccc(-c2ccc(Cn3cccc(O)c3=O)cc2)c1 | 9 (≈ 29.8 µM) | > 40 | – | 2.3 (≈ 7.61 µM) | > 10 | – | – | – | –
4 | N#Cc1ccccc1-c1ccc(Cn2cccc(O)c2=S)cc1 | 0.9 (≈ 2.83 µM) | 31.7 (≈ 99.6 µM) | – | > 10 | > 10 | > 20 | 14.7 | 8.95 | Not Active
5 | N=C(N)c1ccc(OCCCCCOc2ccc(C(=N)N)cc2)cc1 [PENTAMIDINE] | 0.6 (≈ 1.76 µM) | 8.9 (≈ 26.1 µM) | – | 0.4 (≈ 1.17 µM) | > 10 | – | – | – | –
6 | N#Cc1ccccc1-c1ccc(Cn2cccc(O)c2=O)cc1 | 26.7 (≈ 88.3 µM) | > 40 | – | 1.8 (≈ 5.95 µM) | > 10 | – | – | – | –
7 | Cc1cccc(-c2ccc(Cn3cccc(O)c3=S)cc2)c1 | 0.3 (≈ 0.976 µM) | 32.6 (≈ 106 µM) | – | > 10 | > 10 | – | – | – | –
8 | O=c1c(O)cccn1Cc1cn(-c2ccccc2)nn1 | > 40 | 18 (≈ 67.1 µM) | – | > 10 | > 10 | – | – | – | –
9 | O=c1c(O)cccn1Cc1ccc(-c2ccccc2)cc1 | 6.8 (≈ 24.5 µM) | 30.9 (≈ 111 µM) | – | 1.7 (≈ 6.13 µM) | > 10 | – | – | – | –
10 | CN1CCc2c(c3ccccc3n2Cc2ccc(C(=O)NO)cc2)C1 [TUBASTATIN A] | 4.4 (≈ 13.1 µM) | 8.8 (≈ 26.2 µM) | – | – | > 10 | – | – | – | –
11 | COc1ccc(Cn2ccc3ccc(C(=O)NO)cc32)cc1 | – | > 40 | – | > 10 | > 10 | – | – | – | –
12 | C[C@@H]1[C@H](O)[C@@H](C)/C=C/C=C/C=C/C=C/C=C/C=C/C=C/[C@H](O[C@@H]2O[C@H](C)[C@@H](O)[C@H](N)[C@@H]2O)C[C@@H]2O[C@](O)(C[C@@H](O)C[C@@H](O)[C@H](O)CC[C@@H](O)C[C@@H](O)CC(=O)O[C@H]1C)C[C@H](O)[C@H]2C(=O)O [AMPHOTERICIN B] | – | 1.6 (≈ 1.73 µM) | – | 0.2 (≈ 0.216 µM) | > 10 | – | – | – | –
13 | Cc1cccc(-c2ccc(Cn3cccc(O)c3=O)cc2)c1 | 12.6 (≈ 43.2 µM) | 32.5 (≈ 112 µM) | – | > 10 | > 10 | – | – | – | –
14 | Oc1cccn(Cc2ccc(-c3ccccc3)cc2)c1=S | 0.1 (≈ 0.341 µM) | 6.3 (≈ 21.5 µM) | 5 | 0.6 (≈ 2.05 µM) | > 10 | – | – | – | –
15 | CN(C)c1ccc(-n2cc(Cn3cccc(O)c3=S)nn2)cc1 | 1.3 (≈ 3.97 µM) | 5.3 (≈ 16.2 µM) | – | 1.5 (≈ 4.58 µM) | > 10 | – | – | – | –
